Data: US20120100130A1, “Novel Receptor Hetero-Dimers/-Oligomers” (DIMERIX BIOSCIENCE PTY LTD., priority 2009, published 2012)

Assays:
[1] = test system: renal tissue; conditions: rats, 3 days of AngII treatment; cited from earlier work
[2] = test system: leukocyte infiltration; conditions: intraperitoneal AngII administration; cited from earlier work
[3] = test system: glomerular endothelial cells; conditions: AngII treatment, rat glomerular endothelial cells; cited from earlier work
[4] = molecular target: T1, CCR2b (Rattus norvegicus, UniProt O55193); conditions: AngII and high salt diet, cited from earlier work
T1 construct: host or cells: whole animals (in vivo)
T1 sequence (O55193 1-373): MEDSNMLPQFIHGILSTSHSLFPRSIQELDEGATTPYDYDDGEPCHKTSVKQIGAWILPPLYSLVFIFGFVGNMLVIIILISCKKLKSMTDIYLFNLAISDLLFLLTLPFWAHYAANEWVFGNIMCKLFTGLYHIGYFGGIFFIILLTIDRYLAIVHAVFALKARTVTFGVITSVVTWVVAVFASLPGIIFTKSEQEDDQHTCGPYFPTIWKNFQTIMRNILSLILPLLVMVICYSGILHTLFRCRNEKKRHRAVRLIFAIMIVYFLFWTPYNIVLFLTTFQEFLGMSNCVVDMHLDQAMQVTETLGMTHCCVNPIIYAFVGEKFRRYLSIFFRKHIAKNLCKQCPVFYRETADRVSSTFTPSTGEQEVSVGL

[5] = molecular target: T2, AT1R (Homo sapiens, UniProt P30556); experiment: eBRET control, cells expressing AT1R/Rluc8 and barr2/Venus with pcDNA3; type: cell-based; conditions: 10^−7M MCP1; HEK293FT cells expressing AT1R/Rluc8 and barr2/Venus with pcDNA3
T2 construct: expressed in transfected cells; host or cells: HEK293FT
T2 sequence (P30556 1-359): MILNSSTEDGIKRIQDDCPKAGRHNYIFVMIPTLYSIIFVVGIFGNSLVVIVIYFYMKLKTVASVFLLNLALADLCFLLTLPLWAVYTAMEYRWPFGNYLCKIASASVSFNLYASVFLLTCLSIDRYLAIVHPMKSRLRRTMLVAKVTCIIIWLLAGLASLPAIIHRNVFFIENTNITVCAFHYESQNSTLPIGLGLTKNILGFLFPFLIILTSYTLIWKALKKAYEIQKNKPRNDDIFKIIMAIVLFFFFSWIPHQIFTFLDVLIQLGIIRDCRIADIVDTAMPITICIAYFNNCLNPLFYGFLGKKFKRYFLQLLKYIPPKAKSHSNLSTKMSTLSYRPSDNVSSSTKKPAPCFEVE
Procedure: (§1) HEK293FT cells were seeded in 6-well plates at a density of approximately 630,000 cells/well and maintained at 37° C., 5% CO2 in Complete Media (DMEM containing 0.3 mg/ml glutamine, 100 IU/ml penicillin and 100 μg/ml streptomycin (Gibco)) supplemented with 10% fetal calf serum (FCS; Gibco). Transient transfections were carried out 24 h after seeding using GeneJuice (Novagen) according to manufacturer instructions. 24 h post-transfection, cells were washed with PBS, detached using 0.05% trypsin/0.53 mM EDTA, resuspended in HEPES-buffered phenol red free Complete Media containing 5% FCS and added to a poly-L-lysine-coated white 96-well microplate (Nunc). 48 h post-transfection, eBRET assays were carried out following pre-incubation of cells with EnduRen™ (Promega) at a final concentration of 30 μM, at 37° C., 5% CO2 for 2 h. BRET measurements were taken at 37° C. using the Victor Light plate reader with Wallac 1420 software (Perkin-Elmer). Filtered light emissions were sequentially measured for 2 s in each of the ‘donor wavelength window’ (400-475 nm) and ‘acceptor wavelength window’ (520-540 nm).
The BRET signal observed between interacting proteins is normalized by subtracting the background BRET ratio. […]
In parallel, eBRET signals were measured from cells transiently expressing AT1R/Rluc8 and barr2/Venus with pcDNA3 following treatment with 10^−7M monocyte chemotactic protein-1 (MCP1).

[6] = molecular target: T3, AT2R (Homo sapiens, UniProt P50052); experiment: eBRET control, cells expressing AT2R/Rluc8 and barr2/Venus with pcDNA3; type: cell-based; conditions: 10^−7M MCP1; HEK293FT cells expressing AT2R/Rluc8 and barr2/Venus with pcDNA3
T3 construct: expressed in transfected cells; host or cells: HEK293FT
T3 sequence (P50052 1-363): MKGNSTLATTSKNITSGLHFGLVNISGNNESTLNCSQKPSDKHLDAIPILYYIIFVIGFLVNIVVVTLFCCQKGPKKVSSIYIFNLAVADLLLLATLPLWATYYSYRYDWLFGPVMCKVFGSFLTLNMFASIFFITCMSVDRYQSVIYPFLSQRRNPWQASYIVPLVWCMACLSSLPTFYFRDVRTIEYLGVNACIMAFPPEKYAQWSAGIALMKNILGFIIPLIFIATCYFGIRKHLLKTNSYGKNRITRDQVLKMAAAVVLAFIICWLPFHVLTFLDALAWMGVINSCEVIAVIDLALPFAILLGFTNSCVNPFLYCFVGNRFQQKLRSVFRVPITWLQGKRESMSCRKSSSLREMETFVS
Procedure: as §1
The BRET signal observed between interacting proteins is normalized by subtracting the background BRET ratio. […] In the following examples, the second calculation will be used and the signal is described as the ‘ligand-induced BRET ratio’.

[7] = test system: renal cells and monocytes; conditions: cited from earlier work
[8] = test system: AngII treated monocytes; conditions: cited from earlier work
[9] = test system: AT1R; conditions: apolipoprotein E-deficient mice, cited from earlier work

angiotensin II (DRVYIHPF; Angiotensin-2; UniProt P01019 25-32, looked up) [AngII]
renal expression of TNFα and MCP-1 [1]: increased
CC and CXC chemokine levels [2]: increase
mRNA and protein expression of the chemokine RANTES [3]: increase

O=C1Nc2ccccc2C2(CCN(CCc3ccc(C(F)(F)F)cc3)CC2)O1 [RS102895]
BP ([4]; with versus without CCR2b antagonist): comparable
renal protection in hypertension [4]: protects the kidney in hypertension by reducing the inflammatory response

monocyte chemotactic protein-1 [MCP1]
ligand-induced BRET ratio [5]: did not result in an increase in ligand-induced BRET ratio
ligand-induced BRET ratio [6]: did not result in an increase in ligand-induced BRET ratio

angiotensin III (RVYIHPF; Angiotensin-3; UniProt P01019 26-32, looked up) [AngIII]
MCP-1 mRNA and protein expression ([7]; AngIII treatment of renal cells and monocytes): increase
transcription factor NF-κB ([7]; AngIII treatment): activated

C[C@H](N[C@@H](CCc1ccccc1)C(=O)O)C(=O)N1[C@H](C(=O)O)C[C@@H]2CCC[C@@H]21 [Ramiprilat]
AngII-induced upregulation of MIP-1 [8]: suppressed

CCCCC1=NC2(CCCC2)C(=O)N1Cc1ccc(-c2ccccc2-c2nnn[nH]2)cc1 [irbesartan]
lesion size ([9]; after 12 weeks): reduced
levels of MCP-1 and MIP-1α mRNA expression [9]: significantly lower

CCCCc1nc(Cl)c(CO)n1Cc1ccc(-c2ccccc2-c2nn[nH]n2)cc1 [Losartan]
Leukocyte infiltration [2]: inhibited
AngII-mediated upregulation of MIP-1 and interleukin-8 chemokines [8]: inhibited
